We go through one molecule from patent US20210052566A1, “METHODS FOR TREATING HEPATITIS B VIRUS (HBV) INFECTION” (INSERM (INSTITUT NATIONAL DE LA SANTÉ ET DE LA RECHERCHE …, priority 2018, published 2021).

One data set deals with HDV genotype 1. Kind of data set: Hepatitis delta virus replication in infected dHepaRG cells (intracellular HDV RNA, RTqPCR). The format is cell-based. The note with it: HDV MOI 10 vge/cell, 10 microM three times post-infection. As to the method: (§1) FIG. 1. Experimental outlines. Treatment schemes: (a) Treatments in pre-infection: dHepaRG cells were treated for 24 h (at day −1) with 100 nM of PreS1 peptide (PreS1-pep) or 10 μM of 1C8, or untreated (NT). At day 0, cells were inoculated with HBV (MOI=250) or with HDV (MOI=25) in the presence of drugs for 24 h. For the tenofovir control (TDF at 10 μM), cells were treated at day 1 and 4 post-infection. Supernatant and cells were harvested at day 7 post-infection. (b) Treatments in post-infection: dHepaRG cells were inoculated with HBV (MOI=250) or with HDV (MOI=25). At days 4, 7 and 9 post infection, cells were treated with TDF 10 μM, lamivudine (3TC) at 10 μM, 1C8 10 μM or untreated (NT). Supernatant and cells were harvested at day 11 postinfection.
FIG. 5. […] B) HBs and HBe secreted antigens in supernatant were quantified by ELISA, whereas HBV DNA contained in virions was quantified by qPCR after viral nucleic acid extraction from supernatant. C) Intracellular HDV RNA was quantified by RTqPCR after total RNA extraction from cells. D) Viability was monitored in 1C8-treated (or control treated; puromycin is a positive toxic molecule) cells by CellTiter-Glo® luminescent cell viability assay. […] Statistics were done by two-tailed Mann-Whitney test, with following significativity: *P<0.05, **P<0.01, ***P<0.001, ****P<0.0001. nd=not determined
A general note: Quantitative PCR measures a nucleic acid by following its amplification.

Another data set relates to HBV genotype C. Kind of data set: Anti-HBV properties in persistently infected dHepaRG cells, genotype C. The format is cell-based, Hepatitis B virus. The note with it: 10 microM three times. As to the method: as §1, with “Supernatant and cells were harvested at day 11 postinfection.” left out
FIG. 6. […] B) HBs and HBe secreted antigens in supernatant were quantified by ELISA, whereas HBV DNA contained in virions was quantified by qPCR after viral nucleic acid extraction from supernatant. […] Statistics were done by two-tailed Mann-Whitney test, with following significativity: *P<0.05, **P<0.01, ***P<0.001, ****P<0.0001. nd=not determined. […]
From cell culture supernatants, secreted HBe and HBs antigens were quantified by ELISA, using a chemiluminescence immunoassay kit (Autobio, China) following manufacturer's instructions. […]
A HBV standard was used for quantification of extracellular viral DNA and RNA. […] CccDNA was normalized to β-Globin quantification. […]

The next data set deals with HepaRG cells. Kind of data set: Cytotoxicity, CellTiter-Glo Luminescent Cell Viability Assay. The format is cell-based, Human. The note with it: highest concentration tested 40 microM. The text has this:
FIG. 5. Anti-HBV properties of 1C8 in persistently infected dHepaRG cells: genotype D. Differentiated HepaRG were infected with HBV genotype D at a MOI of 100 vge/cell or HDV genotype 1 at a MOI of 10 vge/cell for 7 days before being treated trice every 2-3 days with indicated molecules at a concentration of 10 microM. A) Total DNA and RNA were extracted from cells and subjected to qPCR and RTqPCR to detect HBV cccDNA, total HBV RNA or pregenomic HBV RNA. B) HBs and HBe secreted antigens in supernatant were quantified by ELISA, whereas HBV DNA contained in virions was quantified by qPCR after viral nucleic acid extraction from supernatant. C) Intracellular HDV RNA was quantified by RTqPCR after total RNA extraction from cells. D) Viability was monitored in 1C8-treated (or control treated; puromycin is a positive toxic molecule) cells by CellTiter-Glo® luminescent cell viability assay. Results are the mean+SEM of n=3 performed with 3 different differentiations of HepaRG. Statistics were done by two-tailed Mann-Whitney test, with following significativity: *P<0.05, **P<0.01, ***P<0.001, ****P<0.0001. nd=not determined
Cytotoxicity was measured in HepaRG cells treated with drugs as in experimental schemes presented if FIG. 1 with the “CellTiter-Glo® Luminescent Cell Viability Assay” from Promega, by following manufacturer's instructions.

For another data set, the system named is HIV-1. The note with it: cited from earlier work.

`Cn1ccc(=O)c(C(=O)Nc2nsc3ccc([N+](=O)[O-])cc23)c1` [1C8, 4-pyridinonebenzisothiazole carboxamide]: the “inhibition of replication of hepatitis delta virus” value in the data set on HDV genotype 1 is reported as “not capable to inhibit”. Besides, the “antiviral properties against genotype C virus” value with HBV genotype C is “retained antiviral properties against this strain, although with a slightly reduced efficacy”. For the same molecule, the “concentration toxic for cells (viability, CellTiter-Glo)” value in the data set with HepaRG cells was more than 40 µM. In the data set with HIV-1, the “inhibition of HIV-1 replication” value is on record as “strong inhibitor”.
